Test results published in ChEMBL document CHEMBL1201862, “PubChem BioAssay data set” (2004).
Active and inactive are the calls of the source.

Experiments:
[1] = target: Latent membrane protein 1 (Human herpesvirus 4 (strain B95-8), UniProt P03230); test: LMP1 TES1 pathway selectivity over dsRED control – imaging, HEK293T, dual-color eGFP/dsRED, cherry-picks, selectivity assay for LMP1 NF-kB inhibitor project, dose response (AID 588398); format: functional, cell-based
[2] = viability of HCT116 lacking mutant beta-catenin – cell-based, human colon tumor, dose response (AID 1045); format: functional;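 further: HCT116 colon tumor cells with beta catenin knocked out; cells exposed to compound for 60 hours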
[3] = target: T1, Microphthalmia-associated transcription factor (Homo sapiens, UniProt O75030); test: reducers of TRPM1 reporter luminescence, concentration series – cell-based, SK-MEL-5, cherry-picked, set 3, MITF inhibitor project, dose response (AID 493073); format: functional;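 further: SK-MEL-5 melanoma cells with luciferase driven by the MITF target TRPM1 promoter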
T1 sequence (O75030 whole entry): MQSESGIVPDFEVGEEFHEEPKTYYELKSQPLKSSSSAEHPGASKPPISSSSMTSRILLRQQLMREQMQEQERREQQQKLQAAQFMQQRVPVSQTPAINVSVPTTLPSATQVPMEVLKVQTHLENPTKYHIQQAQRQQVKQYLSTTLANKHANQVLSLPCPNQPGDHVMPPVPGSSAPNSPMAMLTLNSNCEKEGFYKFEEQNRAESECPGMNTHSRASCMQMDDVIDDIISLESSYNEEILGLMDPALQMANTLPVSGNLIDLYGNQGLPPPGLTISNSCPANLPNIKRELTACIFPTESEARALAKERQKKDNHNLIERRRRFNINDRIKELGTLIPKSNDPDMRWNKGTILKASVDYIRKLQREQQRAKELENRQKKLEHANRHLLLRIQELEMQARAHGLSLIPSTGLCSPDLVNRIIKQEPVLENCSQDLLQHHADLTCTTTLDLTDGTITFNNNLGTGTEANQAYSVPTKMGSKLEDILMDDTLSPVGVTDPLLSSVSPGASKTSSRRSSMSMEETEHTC

[4] = viability of PTEN-deleted HCT116 cells – cell-based, HCT116 PTEN knockout, dose response (AID 1047); format: functional;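 further: HCT116 colon tumor cells with PTEN knocked out; cells exposed to compound for 60 hours before readout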
CHO = CHO cell viability loss, potency – luminescence, cytotoxicity control for TLR9-MyD88 binding inhibitor project, dose response (AID 588339); format: functional, cell-based, hamster; conditions: Cricetulus griseus;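 further: CHO cells stably coexpressing TLR9 and MyD88 fusions from primary screen; compound exposure lasted 48 hours before viability readout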
A-375 = test: MITF: Counter assay: A375 proliferation Measured in Cell-Based System Using Plate Reader - 2084-03_Inhibitor_Dose_DryPowder_Activity. [Related pubchem assays (depositor defined):AID488944]; format: functional; conditions: Homo sapiens
[5] = target: Multidrug resistance protein CDR1 (Candida albicans, UniProt P43071); test: inhibition of Nile Red efflux via Candida CDR1 – S. cerevisiae AD1-8u, singleplex, Cherry Pick1 hits, dose response (AID 588606); format: functional
[6] = target: Benomyl/methotrexate resistance protein (Candida albicans, UniProt P28873); test: Candida albicans Mdr1 pump inhibition curves – singleplex, Cherry Pick1 hits, dose response (AID 588608); format: functional
Hexokinase HKDC1 = target: T2, Hexokinase HKDC1 (Homo sapiens, UniProt Q2TB90); test: SAR analysis of small molecule inhibitors of hexokinase domain containing I (HKDC1). [Related pubchem assays (depositor defined):AID493160, AID493190]; format: functional
T2 sequence (Q2TB90 whole entry): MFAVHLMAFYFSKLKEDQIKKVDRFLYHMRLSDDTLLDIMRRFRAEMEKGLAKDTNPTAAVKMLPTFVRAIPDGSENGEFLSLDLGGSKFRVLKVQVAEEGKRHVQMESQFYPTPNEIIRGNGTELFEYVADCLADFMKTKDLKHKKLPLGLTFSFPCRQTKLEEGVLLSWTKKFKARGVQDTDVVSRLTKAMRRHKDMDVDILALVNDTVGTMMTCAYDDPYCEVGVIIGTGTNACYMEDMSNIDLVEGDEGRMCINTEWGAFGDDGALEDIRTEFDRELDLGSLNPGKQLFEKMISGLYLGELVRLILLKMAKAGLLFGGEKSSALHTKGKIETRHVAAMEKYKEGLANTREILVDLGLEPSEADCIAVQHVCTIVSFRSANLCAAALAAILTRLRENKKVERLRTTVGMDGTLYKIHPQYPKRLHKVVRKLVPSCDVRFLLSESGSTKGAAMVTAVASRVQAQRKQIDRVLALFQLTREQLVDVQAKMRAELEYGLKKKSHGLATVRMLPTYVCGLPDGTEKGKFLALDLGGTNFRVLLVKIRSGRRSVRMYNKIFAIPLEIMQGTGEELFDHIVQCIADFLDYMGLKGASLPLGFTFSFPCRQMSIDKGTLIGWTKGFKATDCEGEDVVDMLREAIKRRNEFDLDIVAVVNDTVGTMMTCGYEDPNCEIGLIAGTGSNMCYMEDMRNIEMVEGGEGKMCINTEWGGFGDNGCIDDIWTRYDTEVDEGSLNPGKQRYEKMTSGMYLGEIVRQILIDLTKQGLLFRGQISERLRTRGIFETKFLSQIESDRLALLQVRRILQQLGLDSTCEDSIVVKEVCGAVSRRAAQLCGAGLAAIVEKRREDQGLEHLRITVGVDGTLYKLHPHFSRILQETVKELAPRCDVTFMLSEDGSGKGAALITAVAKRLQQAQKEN

Hexokinase-1 = target: T3, Hexokinase-1 (Homo sapiens, UniProt P19367); test: SAR analysis of small molecule inhibitors of hexokinase domain containing I (HKDC1) in the hexokinase 1 selectivity assay. [Related pubchem assays (depositor defined):AID493160, AID493190]; format: functional
T3 sequence (P19367 whole entry): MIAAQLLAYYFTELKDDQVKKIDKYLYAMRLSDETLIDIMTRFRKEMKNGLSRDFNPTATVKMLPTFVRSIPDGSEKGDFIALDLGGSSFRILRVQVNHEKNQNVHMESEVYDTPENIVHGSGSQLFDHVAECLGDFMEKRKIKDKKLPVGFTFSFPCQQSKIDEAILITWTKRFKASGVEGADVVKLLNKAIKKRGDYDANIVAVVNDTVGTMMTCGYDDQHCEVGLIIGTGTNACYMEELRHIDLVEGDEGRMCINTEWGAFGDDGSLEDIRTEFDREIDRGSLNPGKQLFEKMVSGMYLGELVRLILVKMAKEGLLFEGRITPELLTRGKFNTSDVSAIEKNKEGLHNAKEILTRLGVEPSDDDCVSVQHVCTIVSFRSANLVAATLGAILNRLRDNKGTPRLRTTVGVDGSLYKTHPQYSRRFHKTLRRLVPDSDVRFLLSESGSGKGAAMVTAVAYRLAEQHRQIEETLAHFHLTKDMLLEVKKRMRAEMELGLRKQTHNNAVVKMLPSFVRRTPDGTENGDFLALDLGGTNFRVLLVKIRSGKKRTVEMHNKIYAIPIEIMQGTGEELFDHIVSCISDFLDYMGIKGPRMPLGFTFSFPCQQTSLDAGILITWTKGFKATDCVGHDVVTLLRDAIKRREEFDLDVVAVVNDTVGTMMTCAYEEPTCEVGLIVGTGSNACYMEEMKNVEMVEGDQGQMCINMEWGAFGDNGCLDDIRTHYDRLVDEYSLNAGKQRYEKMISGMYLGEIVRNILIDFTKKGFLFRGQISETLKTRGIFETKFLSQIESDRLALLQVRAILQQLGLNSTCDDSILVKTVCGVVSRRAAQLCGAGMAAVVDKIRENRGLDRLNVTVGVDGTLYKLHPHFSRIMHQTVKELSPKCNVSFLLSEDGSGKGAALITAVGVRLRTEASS

INS1 [7] = test: suppression of NO production in INS-1E cells – cell-based, Griess absorbance, dry powder, set 2, dose response (AID 488868); format: functional; conditions: Rattus norvegicus
INS1 [8] = test: beta-cell survival under cytokine stress – INS-1E, ATP luminescence, dry powder, dose response (AID 488844); format: functional, cell-based; conditions: Rattus norvegicus
[9] = suppression of NO production in INS-1E cells – cell-based, Griess absorbance, dry powder, set 3, dose response (AID 488870); format: functional; conditions: Rattus norvegicus
[10] = target: Vascular endothelial growth factor receptor 2 (Homo sapiens, UniProt P35968); format: functional
Aurora kinase B = Aurora kinase B (Homo sapiens, UniProt Q96GD4); format: functional
Aurora kinase A = target: T4, Aurora kinase A (Homo sapiens, UniProt O14965); format: functional;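 further: value from the Navigating the Kinome kinase panel profiling, panel entry STK6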
T4 sequence (O14965 whole entry): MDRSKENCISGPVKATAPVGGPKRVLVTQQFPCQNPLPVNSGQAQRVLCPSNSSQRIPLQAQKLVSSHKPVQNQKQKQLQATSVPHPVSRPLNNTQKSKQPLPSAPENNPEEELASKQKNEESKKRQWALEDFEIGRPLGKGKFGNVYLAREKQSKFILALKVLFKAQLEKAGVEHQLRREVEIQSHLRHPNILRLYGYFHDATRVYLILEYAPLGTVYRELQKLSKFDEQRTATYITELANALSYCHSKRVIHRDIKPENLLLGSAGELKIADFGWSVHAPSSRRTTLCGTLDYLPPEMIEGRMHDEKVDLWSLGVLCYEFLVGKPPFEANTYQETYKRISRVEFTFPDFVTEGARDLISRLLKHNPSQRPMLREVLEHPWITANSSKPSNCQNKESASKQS

[11] = target: Melanin-concentrating hormone receptor 1 (Homo sapiens, UniProt Q99705); test: Late-stage fluorescence-based counterscreen for antagonists of the G-protein coupled receptor 7 (GPR7): cell-based dose response assay to identify antagonists of the melanin-concentrating hormone receptor 1 (MCHR1) Set 5.; format: functional
HEK293 = test: EBV LMP1 TES2 canonical NF-kB signalling blockers – cell-based, HEK293, luciferase, cherry-pick, dose response (AID 588343); format: functional; conditions: Homo sapiens

Chain of Latent membrane protein 1 (P03230 whole entry): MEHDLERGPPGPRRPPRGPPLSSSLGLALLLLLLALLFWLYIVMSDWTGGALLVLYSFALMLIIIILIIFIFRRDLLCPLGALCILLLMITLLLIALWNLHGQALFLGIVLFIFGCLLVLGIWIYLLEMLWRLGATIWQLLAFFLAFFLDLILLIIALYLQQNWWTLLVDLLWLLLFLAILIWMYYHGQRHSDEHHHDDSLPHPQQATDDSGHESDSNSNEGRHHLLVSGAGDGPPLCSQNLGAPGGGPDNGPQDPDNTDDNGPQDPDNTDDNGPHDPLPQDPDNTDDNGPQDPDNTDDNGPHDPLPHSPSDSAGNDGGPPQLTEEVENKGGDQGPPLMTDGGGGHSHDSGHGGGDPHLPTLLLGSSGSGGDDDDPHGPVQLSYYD
Chain of Vascular endothelial growth factor receptor 2 (P35968 whole entry): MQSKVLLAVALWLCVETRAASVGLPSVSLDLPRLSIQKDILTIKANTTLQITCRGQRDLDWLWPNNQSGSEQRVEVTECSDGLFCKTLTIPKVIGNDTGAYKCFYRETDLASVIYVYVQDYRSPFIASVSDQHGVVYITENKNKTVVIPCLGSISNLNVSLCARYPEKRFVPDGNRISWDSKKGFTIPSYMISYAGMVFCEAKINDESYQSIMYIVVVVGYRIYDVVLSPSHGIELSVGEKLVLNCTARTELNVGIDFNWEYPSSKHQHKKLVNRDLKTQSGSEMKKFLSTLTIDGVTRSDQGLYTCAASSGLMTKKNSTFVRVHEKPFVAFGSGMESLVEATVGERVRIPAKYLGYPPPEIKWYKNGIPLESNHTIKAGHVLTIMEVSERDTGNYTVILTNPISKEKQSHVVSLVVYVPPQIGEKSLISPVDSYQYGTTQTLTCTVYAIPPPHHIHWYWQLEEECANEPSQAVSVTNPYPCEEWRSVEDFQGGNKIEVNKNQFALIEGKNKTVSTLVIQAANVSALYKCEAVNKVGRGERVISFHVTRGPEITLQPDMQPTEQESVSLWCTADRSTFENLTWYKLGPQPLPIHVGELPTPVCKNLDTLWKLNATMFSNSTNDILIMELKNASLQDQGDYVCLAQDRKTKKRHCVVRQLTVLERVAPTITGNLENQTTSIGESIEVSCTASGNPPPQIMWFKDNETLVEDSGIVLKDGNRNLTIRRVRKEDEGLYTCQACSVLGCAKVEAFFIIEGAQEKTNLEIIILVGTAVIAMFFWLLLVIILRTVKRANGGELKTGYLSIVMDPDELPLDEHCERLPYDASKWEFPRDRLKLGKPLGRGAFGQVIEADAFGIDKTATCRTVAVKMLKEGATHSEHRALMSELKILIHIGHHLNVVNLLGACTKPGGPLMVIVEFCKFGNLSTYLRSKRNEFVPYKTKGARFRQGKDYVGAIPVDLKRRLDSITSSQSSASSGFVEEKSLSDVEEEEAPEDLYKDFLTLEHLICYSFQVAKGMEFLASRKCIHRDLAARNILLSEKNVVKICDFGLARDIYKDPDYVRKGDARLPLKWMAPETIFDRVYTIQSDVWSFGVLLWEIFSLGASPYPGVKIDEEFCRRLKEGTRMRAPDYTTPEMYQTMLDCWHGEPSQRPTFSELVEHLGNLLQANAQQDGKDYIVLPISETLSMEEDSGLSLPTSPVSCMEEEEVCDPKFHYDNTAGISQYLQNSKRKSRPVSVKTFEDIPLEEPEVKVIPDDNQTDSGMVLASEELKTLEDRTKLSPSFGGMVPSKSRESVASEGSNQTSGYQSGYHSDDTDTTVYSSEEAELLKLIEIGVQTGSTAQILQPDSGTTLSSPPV
Chain of Benomyl/methotrexate resistance protein (P28873 whole entry, the tested form may be a part): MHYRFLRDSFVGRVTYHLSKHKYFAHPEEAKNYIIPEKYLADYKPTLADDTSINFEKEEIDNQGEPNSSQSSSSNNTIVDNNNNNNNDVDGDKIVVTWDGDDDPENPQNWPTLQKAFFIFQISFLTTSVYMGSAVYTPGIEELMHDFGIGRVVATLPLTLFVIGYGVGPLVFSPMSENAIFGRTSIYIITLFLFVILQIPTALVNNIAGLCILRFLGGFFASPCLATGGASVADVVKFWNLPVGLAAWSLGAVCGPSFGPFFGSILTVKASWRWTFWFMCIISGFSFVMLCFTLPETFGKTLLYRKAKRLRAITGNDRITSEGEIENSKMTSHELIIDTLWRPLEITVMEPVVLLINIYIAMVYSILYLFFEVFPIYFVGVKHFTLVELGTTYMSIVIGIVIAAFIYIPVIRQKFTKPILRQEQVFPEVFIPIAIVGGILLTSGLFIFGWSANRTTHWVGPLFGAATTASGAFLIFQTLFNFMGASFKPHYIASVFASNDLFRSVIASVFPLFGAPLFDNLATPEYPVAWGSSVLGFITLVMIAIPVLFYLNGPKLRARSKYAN
Chain of Melanin-concentrating hormone receptor 1 (Q99705 whole entry): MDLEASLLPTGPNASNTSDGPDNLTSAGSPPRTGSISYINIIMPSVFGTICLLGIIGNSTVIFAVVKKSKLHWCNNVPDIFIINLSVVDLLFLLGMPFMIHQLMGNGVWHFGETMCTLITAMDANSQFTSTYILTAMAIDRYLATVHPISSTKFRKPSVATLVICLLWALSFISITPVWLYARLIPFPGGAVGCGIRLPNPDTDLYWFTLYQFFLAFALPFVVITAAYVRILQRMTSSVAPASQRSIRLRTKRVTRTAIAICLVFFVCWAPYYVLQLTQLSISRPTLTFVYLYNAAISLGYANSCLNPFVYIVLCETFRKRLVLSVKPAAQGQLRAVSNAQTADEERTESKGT
Chain of Aurora kinase B (Q96GD4 whole entry): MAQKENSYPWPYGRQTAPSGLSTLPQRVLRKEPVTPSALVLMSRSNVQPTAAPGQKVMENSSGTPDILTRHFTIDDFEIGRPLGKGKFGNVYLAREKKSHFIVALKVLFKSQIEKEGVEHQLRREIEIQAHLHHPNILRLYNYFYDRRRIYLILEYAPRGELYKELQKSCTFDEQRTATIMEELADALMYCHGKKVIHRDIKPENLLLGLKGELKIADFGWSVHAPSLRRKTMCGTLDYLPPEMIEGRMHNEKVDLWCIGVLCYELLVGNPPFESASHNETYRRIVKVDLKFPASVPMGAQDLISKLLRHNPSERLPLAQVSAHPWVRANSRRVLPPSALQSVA
Chain of Multidrug resistance protein CDR1 (P43071 whole entry, looked up): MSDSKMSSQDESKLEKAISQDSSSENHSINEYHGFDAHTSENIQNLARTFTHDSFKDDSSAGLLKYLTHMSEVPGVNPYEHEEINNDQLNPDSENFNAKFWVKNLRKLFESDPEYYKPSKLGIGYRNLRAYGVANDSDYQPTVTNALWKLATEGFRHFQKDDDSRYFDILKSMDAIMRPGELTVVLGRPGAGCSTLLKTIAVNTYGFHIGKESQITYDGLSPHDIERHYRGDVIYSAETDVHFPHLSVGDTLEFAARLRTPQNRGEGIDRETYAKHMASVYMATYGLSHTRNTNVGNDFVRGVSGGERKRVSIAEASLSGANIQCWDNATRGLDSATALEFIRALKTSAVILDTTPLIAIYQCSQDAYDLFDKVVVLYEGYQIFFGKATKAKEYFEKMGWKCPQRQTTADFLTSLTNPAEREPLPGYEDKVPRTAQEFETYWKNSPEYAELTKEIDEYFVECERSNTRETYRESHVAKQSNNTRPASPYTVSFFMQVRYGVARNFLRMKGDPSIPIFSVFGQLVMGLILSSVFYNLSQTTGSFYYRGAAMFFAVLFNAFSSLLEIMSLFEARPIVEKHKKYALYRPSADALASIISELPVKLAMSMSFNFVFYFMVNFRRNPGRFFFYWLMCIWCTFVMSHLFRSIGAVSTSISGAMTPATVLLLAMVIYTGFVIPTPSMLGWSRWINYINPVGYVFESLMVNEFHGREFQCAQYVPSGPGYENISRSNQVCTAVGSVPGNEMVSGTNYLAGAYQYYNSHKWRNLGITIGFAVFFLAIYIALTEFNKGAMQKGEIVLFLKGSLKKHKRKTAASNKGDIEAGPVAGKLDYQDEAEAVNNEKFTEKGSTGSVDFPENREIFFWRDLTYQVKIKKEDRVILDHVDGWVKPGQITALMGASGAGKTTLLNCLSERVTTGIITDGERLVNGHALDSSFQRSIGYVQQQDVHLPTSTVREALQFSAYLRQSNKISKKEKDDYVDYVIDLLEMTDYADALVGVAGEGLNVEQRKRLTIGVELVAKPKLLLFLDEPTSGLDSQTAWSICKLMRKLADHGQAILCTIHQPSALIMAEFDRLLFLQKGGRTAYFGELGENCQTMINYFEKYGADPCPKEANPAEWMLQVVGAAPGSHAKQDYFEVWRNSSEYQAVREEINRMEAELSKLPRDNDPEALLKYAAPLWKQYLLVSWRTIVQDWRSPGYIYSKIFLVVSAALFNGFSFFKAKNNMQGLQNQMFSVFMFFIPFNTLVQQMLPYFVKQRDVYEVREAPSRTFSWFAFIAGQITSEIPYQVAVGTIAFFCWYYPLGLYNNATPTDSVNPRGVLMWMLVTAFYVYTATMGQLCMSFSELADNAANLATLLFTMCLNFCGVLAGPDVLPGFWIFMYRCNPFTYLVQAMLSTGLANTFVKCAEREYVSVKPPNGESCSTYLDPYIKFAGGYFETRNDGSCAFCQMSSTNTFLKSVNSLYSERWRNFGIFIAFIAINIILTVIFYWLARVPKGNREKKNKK

## COCCN1Cc2cccc(C(=O)N3CCN(c4cc(C)ccc4C)CC3)c2C1=O
[1]
  AC50: 53.1 µM (active)

## CCCCN(C)CC(O)Cn1cc(/C=C/C(=O)c2cccs2)c2ccccc21 (stereo unspecified)
[2]
  EC50: 10.5 µM (active)
[3]
  AC50: 14.3 µM (active)
[4]
  EC50: 13.4 µM (active)
CHO
  IC50: 14.9 µM (inactive)
A-375
  AC50: 40.9 µM (active)

## COc1ccc2sc(-c3ccccc3OC)c(-c3ccc(OCCN4CCOCC4)cc3)c2c1
[5]
  EC50: 10 µM (active)
[6]
  EC50: 10.6 µM (active)

## O=c1c2ccccc2nc(/C=C\c2ccccc2Cl)n1Cc1ccccc1
Hexokinase HKDC1
  IC50: > 80 µM (inactive)
Hexokinase-1
  IC50: > 80 µM (inactive)

## O=S(=O)(Nc1cc(Sc2nc[nH]n2)c(O)c2ccccc12)c1ccc(Cl)cc1
Hexokinase HKDC1
  IC50: 9.86 µM (active)
Hexokinase-1
  IC50: 65.3 µM (inactive)

## C[C@@H]1CN([C@@H](C)CO)C(=O)c2cccc(NC(=O)Nc3cccc4ccccc34)c2O[C@H]1CN(C)S(=O)(=O)c1ccc(F)cc1
INS1 [7]
  AC50: 138 µM (active)
INS1 [8]
  AC50: 7.41 µM (active)
[9]
  AC50: 77.2 µM (active)

## CC(C)CC(CO)NC(=O)C=Cc1cnc(N)c2ccccc12 (stereo unspecified)
[10]
  Ki: > 5.01 µM (inactive)
Aurora kinase B
  Ki: 0.0158 µM (active)
Aurora kinase A
  Ki: 1.58 µM (active)

## O=c1c(Oc2ccc3c(c2)CCC3)c(Cl)cnn1Cc1cccc2ccccc12
[11]
  IC50: 17.9 µM (inactive)

## COc1cc([C@@H]2c3cc4c(cc3[C@@H](O[C@@H]3O[C@@H]5CO[C@@H](C)O[C@H]5[C@H](O)[C@H]3O)[C@H]3COC(=O)[C@H]23)OCO4)cc(OC)c1O [ETOPOSIDE]
[1]
  AC50: 0.4 µM (active)
HEK293
  AC50: 0.784 µM (active)
